{"source": "paper doi:10.1101/2025.04.25.650653", "about": "“Hierarchical small molecule inhibition of MYST acetyltransferases” (bioRxiv, 2025)", "key": {"H3K14Ac (KAT7)": {"system": "H3K14Ac (KAT7)", "assay": "Histone biomarker bottom-up LC-MS/MS, MCF-7", "assay_type": "cell-based", "details": "for Ratio, H3_9_17 K9me1K14ac / Ratio, H3_9_17 K9me2K14ac / Ratio, H3_9_17 K14ac: Replicates 1-3"}, "H3K23Ac (KAT6A/B)": {"system": "H3K23Ac (KAT6A/B)", "assay": "Histone biomarker bottom-up LC-MS/MS, MCF-7", "assay_type": "cell-based", "details": "for Ratio, H3_18_26 K23ac: Replicates 1-3", "from_the_text": "In this approach. […] Histones are then extracted from cell pellets and chemically derivatized with propionic anhydride, digested with trypsin, subjected to a second round of propionylation, and analyzed by LC-MS/MS. Measuring the relative intensity of modified versus unmodified forms of individual histone peptides enables simultaneous monitoring of multiple potential biomarkers of MYST inhibition. To minimize false positives, we focused on abundant and reproducible modifications (average stoichiometry of greater than 1% across triplicate samples, standard deviation less than or equal to the average measurement). To account for potential histone modification crosstalk, changes in both acetylated and methylated peptides were evaluated. 38 modified peptides passed this reproducible detection threshold including several established KAT biomarkers[41] including H3K9Ac (KAT2A/B), H3K18Ac (KAT3A/B), H3K14Ac (KAT7), H3K23Ac (KAT6A/B), H4K16Ac (KAT8), and H2A.ZK4/K7Ac (KAT5; Fig. 4B).\nGenetic perturbations have unambiguously determined the dependence of H3K23Ac on KAT6A/B.[9], [41] The H3K23Ac biomarker critically complements chemoproteomics by allowing sensitive assessment of KAT6A and KAT6B activity, whose active site occupancy is otherwise difficult to assess. […] This is significant since several studies have used H3K9Ac as a proxy for KAT6A/B inhibition (Table S7),[8], [42] even though its regulation is most commonly attributed to KAT2A/B.[41] Since LC-MS/MS assays require specialized equipment and technical expertise, we also validated a panel of histone acetylation antibodies that recapitulate the dose-dependent inhibition of MYST targets by western blot (Fig. 4E). […]\nnuclei were pelleted by centrifugation (600 rcf, 4°C, 5 min). Pelleted nuclei were washed twice with 150 μL of detergent-free NIB buffer, followed by centrifugation (600 rcf, 4°C, 5 min) to remove all detergent.\nNuclei were then resuspended in 400 μL of 0.4 N H₂SO₄ and rotated at 4°C overnight for acid extraction of histones. The following day, samples were centrifuged (11,000 rcf, 4°C, 10 min) and the histone-containing supernatant was transferred to a fresh tube. Trichloroacetic acid (100% TCA) was added to achieve a final concentration of 20% (v/v), tubes were inverted once to mix, and histone precipitation was performed on ice for at least 3 hours or overnight at 4°C. Precipitated histones were collected by centrifugation (11,000 rcf, 4°C, 10 min) and the supernatant carefully removed, leaving a visible film of histones on the tube wall or bottom. Histone pellets were subjected to sequential washes with 1 mL of ice-cold acidified acetone (0.1% 12 N HCl) followed by 1 mL of 100% ice-cold acetone, with centrifugation (11,000 rcf, 4°C, 5 min) after each wash. Samples were air-dried at room temperature, resuspended in 40 µL of ddH₂O, and protein […]\nanalysis, 1-2 µg of purified histones were loaded per lane and processed according to the general immunoblotting protocol described in General Materials and Methods.\nAnalysis of histone modifications by LC-MS/MS\nPreparation of histone samples for LC-MS/MS was performed analogously to the procedure for immunoblotting above, with the following modifications. MCF7 cells (4.2 × 106) were seeded in 15 cm dishes and treated with PF-9363 or vehicle. Experiments were performed in triplicate. Following treatment and PBS washing, cells were scraped and collected in 15 mL falcon tubes, pelleted (500 rcf, 4°C, 5 min), resuspended in 1 mL cold PBS, transferred to microcentrifuge tubes, and pelleted again before flash-freezing in liquid nitrogen for storage at -80°C. For extraction, cell pellets (~100 μL) were resuspended in NIB buffer at a 1:10 ratio, and cells were lysed with NIB buffer containing 0.2% NP-40 for 8 minutes on ice. Nuclei were pelleted at 1,000 rcf for 8 minutes and washed three times with 500 μL detergent-free NIB"}, "[1]": {"details": "KAT marker KAT7, PF-9363 0.1 v 30"}, "[2]": {"details": "KAT marker KAT7, PF-9363 (0.1 mM)"}, "[3]": {"details": "KAT marker KAT7, PF-9363 (30 mM)"}}, "note": "Several values for one entry are separate records, joined by “and”; a condition that tells them apart may be missing. Equal values may be shown once."}
{"compound": "COc1cccc(OC)c1S(=O)(=O)Nc1noc2cc(Cn3cccn3)cc(OC)c12", "note": "[PF-9363]", "values": [{"measurement": "IC50", "setting": "H3K14Ac (KAT7); Homo sapiens, MCF7, MCF-7 cells, 24 h", "result": "~1000", "unit": "nM"}, {"measurement": "Fold-change 0.1 v 30, H3_9_17 K9me1K14ac", "setting": "H3K14Ac (KAT7); [1]", "result": 5.55}, {"measurement": "Fold-change 0.1 v 30, H3_9_17 K9me2K14ac", "setting": "H3K14Ac (KAT7); [1]", "result": 4.54}, {"measurement": "Fold-change 0.1 v 30, H3_9_17 K14ac", "setting": "H3K14Ac (KAT7); [1]", "result": 4.58}, {"measurement": "Average ratio, H3_9_17 K9me1K14ac", "setting": "H3K14Ac (KAT7); [2]", "result": 0.0218}, {"measurement": "Average ratio, H3_9_17 K9me2K14ac", "setting": "H3K14Ac (KAT7); [2]", "result": 0.1048}, {"measurement": "Average ratio, H3_9_17 K14ac", "setting": "H3K14Ac (KAT7); [2]", "result": 0.0358}, {"measurement": "Average ratio, H3_9_17 K9me1K14ac", "setting": "H3K14Ac (KAT7); [3]", "result": 0.0039}, {"measurement": "Average ratio, H3_9_17 K9me2K14ac", "setting": "H3K14Ac (KAT7); [3]", "result": 0.0231}, {"measurement": "Average ratio, H3_9_17 K14ac", "setting": "H3K14Ac (KAT7); [3]", "result": 0.0078}, {"measurement": "Ratio, H3_9_17 K9me1K14ac", "setting": "H3K14Ac (KAT7); KAT marker KAT7, dose 0.1", "result": "0.01996 and 0.02377 and 0.02171"}, {"measurement": "Ratio, H3_9_17 K9me2K14ac", "setting": "H3K14Ac (KAT7); KAT marker KAT7, dose 0.1", "result": "0.087 and 0.123 and 0.1045"}, {"measurement": "Ratio, H3_9_17 K14ac", "setting": "H3K14Ac (KAT7); KAT marker KAT7, dose 0.1", "result": "0.03031 and 0.04488 and 0.03226"}, {"measurement": "Ratio, H3_9_17 K9me1K14ac", "setting": "H3K14Ac (KAT7); KAT marker KAT7, dose 1", "result": "0.01133 and 0.012 and 0.01281"}, {"measurement": "Ratio, H3_9_17 K9me2K14ac", "setting": "H3K14Ac (KAT7); KAT marker KAT7, dose 1", "result": "0.0545 and 0.07102 and 0.04882"}, {"measurement": "Ratio, H3_9_17 K14ac", "setting": "H3K14Ac (KAT7); KAT marker KAT7, dose 1", "result": "0.02498 and 0.02856 and 0.02464"}, {"measurement": "Ratio, H3_9_17 K9me1K14ac", "setting": "H3K14Ac (KAT7); KAT marker KAT7, dose 10", "result": "0.004127 and 0.006046 and 0.005821"}, {"measurement": "Ratio, H3_9_17 K9me2K14ac", "setting": "H3K14Ac (KAT7); KAT marker KAT7, dose 10", "result": "0.02988 and 0.02204 and 0.03567"}, {"measurement": "Ratio, H3_9_17 K14ac", "setting": "H3K14Ac (KAT7); KAT marker KAT7, dose 10", "result": "0.01535 and 0.01122 and 0.01409"}, {"measurement": "Ratio, H3_9_17 K9me1K14ac", "setting": "H3K14Ac (KAT7); KAT marker KAT7, dose 30", "result": "0.004797 and 0.003603 and 0.003398"}, {"measurement": "Ratio, H3_9_17 K9me2K14ac", "setting": "H3K14Ac (KAT7); KAT marker KAT7, dose 30", "result": "0.01983 and 0.02491 and 0.02445"}, {"measurement": "Ratio, H3_9_17 K14ac", "setting": "H3K14Ac (KAT7); KAT marker KAT7, dose 30", "result": "0.006424 and 0.008372 and 0.008647"}, {"measurement": "reduction of H3K23Ac", "setting": "H3K23Ac (KAT6A/B); 0.1 μM, 24 h, MCF-7 cells", "result": "~ 80%"}, {"measurement": "Fold-change 0.1 v 30, H3_18_26 K23ac", "setting": "H3K23Ac (KAT6A/B); KAT marker KAT6A/B, PF-9363 0.1 v 30", "result": 7.11}, {"measurement": "Average ratio, H3_18_26 K23ac", "setting": "H3K23Ac (KAT6A/B); KAT marker KAT6A/B, PF-9363 (0.1 mM)", "result": 0.0330}, {"measurement": "Average ratio, H3_18_26 K23ac", "setting": "H3K23Ac (KAT6A/B); KAT marker KAT6A/B, PF-9363 (30 mM)", "result": 0.0046}, {"measurement": "Ratio, H3_18_26 K23ac", "setting": "H3K23Ac (KAT6A/B); KAT marker KAT6A/B, dose 0.1", "result": "0.02851 and 0.03904 and 0.03134"}, {"measurement": "Ratio, H3_18_26 K23ac", "setting": "H3K23Ac (KAT6A/B); KAT marker KAT6A/B, dose 1", "result": "0.02199 and 0.02064 and 0.0179"}, {"measurement": "Ratio, H3_18_26 K23ac", "setting": "H3K23Ac (KAT6A/B); KAT marker KAT6A/B, dose 10", "result": "0.01047 and 0 and 0.009458"}, {"measurement": "Ratio, H3_18_26 K23ac", "setting": "H3K23Ac (KAT6A/B); KAT marker KAT6A/B, dose 30", "result": "0 and 0.006901 and 0.007012"}]}
